Like-named read-outs stand apart in the source and are kept apart here.
Key:
Format in all cases: cell-based
[1] = tested on: Pseudomonas fluorescens EL-2.1; experiment: Bactericidal activity, agar diffusion, Ps. fluorescens; conditions: Pseudomonas fluorescens, EL2.1, 2 mM/L
Text: (§1) Plant pathogenic bacterial strains Micrococcus luteus B-109, Pectobacterium atrosepticum 1043, Pectobacterium carotovorum subsp. carotovorum MI, Pseudomonas fluorescens EL-2.1, and Xanthomonas campestris B-610 and fungal strain Fusarium oxysporum IBPPM 543 were obtained from the specialized scientific culture collection of IBPPM RAS (WFCC no. 975, WDCM no. 1021) (CM IBPPM). Pathogenic fungus Phytophthora cactorum VKM F-985 provided by the All-Russian Collection of Microorganisms (VKM) and deposited at A.E. Favorsky Irkutsk Institute of Chemistry, SB RAS, was also used as test organism. Bacteria M. luteus, P. carotovorum subsp. carotovorum, P. atrosepticum, and Ps. fluorescens were grown in meat-peptone medium (BP), and X. campestris was grown in the medium with glucose, yeast extract, and calcium carbonate (GYCa). Solid media contained Bacto agar (18 g/L); pH was adjusted to 7.2-7.4. All bacterial cultures were grown at 28°C. The mycelial cultures of F. oxysporum and P. cactorum were grown on a glucose-peptone-yeast (GPY) nutrient medium at 27 °C. For inoculum preparation, both fungal strains were initially grown on the agar GPY in Petri dishes and then transferred into the seed medium by punching out 5 mm of the agar plate culture with a self-designed cutter.
(§2) Antibacterial and antifungal activities of the compounds were explored using the agar diffusion method and the technique of a phytopathogen radial growth inhibition. Method of diffusion in agar (measuring the diameter of growth inhibition zones) was used for determining the bactericidal activity. The 6-mm wells were made in ager medium (GYCa for Xanthomonas campestris or BP for other bacteria). Bacterial suspensions were distributed over the agar surface, and the tested compound's solution (150 μl) was added to each well. The width of growth inhibition zones around the wells was determined after incubation for 36-40 h.
(§3) The solutions of tested compounds were prepared with a concentration of 2 mmol/l (stock solution). For comparison, test compounds were also commonly applied disinfecting agents and antibiotics.

[2] = tested on: Xanthomonas campestris B-610; experiment: Bactericidal activity, agar diffusion, X. campestris; conditions: Xanthomonas campestris, B610, 2 mM/L
Text: as §1, §2, §3

[3] = tested on: Pectobacterium carotovorum subsp. carotovorum MI; experiment: Bactericidal activity, agar diffusion, P. carotovorum; conditions: Pectobacterium carotovorum, 2 mM/L
Text: as §1, §2, §3

[4] = tested on: Bacillus cereus ATCC 10702 NCTC 8035; experiment: Antimicrobial activity, serial dilution (MIC/MBC), Bc
Description: (§4) The antimicrobial activity of the test compounds was determined by the serial dilution technique in Muller Hinton Broth 2 and in Sabouradu broth for fungi. The cultures used for testing included Gram-positive bacteria: Staphylococcus aureus ATCC 6538P FDA 209P, Bacillus cereus ATCC 10702 NCTC 8035, Enterococcus faecalis ATCC 29212; Gram-negative bacteria: Escherichia coli ATCC 25922, Pseudomonas aeruginosa ATCC 9027, and fungi: Trichophyton mentagrophytes var. gypseum 1773, and Candida albicans ATCC 10231; methicillin-resistant strains of S. aureus (MRSA) was obtained from hospital patients with chronic tonsillitis in the Republican Clinical Hospital (Kazan, Russia). The bacterial load was 3.0 × 10^5 cfu/ml. The fungi load was 2.0 × 10^3 cfu/ml. The results were recorded every 24 h for 5-7 days. Cultures were incubated at 37 °C. The experiment was repeated three times. […] The minimum inhibitory concentration (MIC) was defined as the minimum concentration of a compound that inhibits the growth of the corresponding test microorganism. The growth of bacteria, as well as the absence of the growth due to the bacteriostatic action of compounds, were recorded.
(§5) Synthesized compounds were further evaluated for antimicrobial activity against test microorganisms: Staphylococcus aureus ATCC 209p (Sa), Bacillus cereus ATCC 8035 (Bc), Escherichia coli CDC F-50 (Ec), Enterococcus faecalis (Ef), Pseudomonas aeruginosa ATCC 9027, Aspergillus niger BKMF-1119, Trichophyton mentagrophytes var. gypseum 1773, and Candida albicans 855-653 including methicillin-resistant strains of S. aureus (MRSA 1 and MRSA 2). The minimum inhibitory (MIC) and minimum bactericidal (MBC) concentrations of ammonium salts were determined against these pathogens (Table 1). Due to the lack of activity of compounds 3a-g against Gram-negative bacterial strains and some fungi, the corresponding data are not shown.

[5] = tested on: platelets (ADP-induced aggregation); experiment: Platelet aggregation (Born method), ADP-induced; conditions: Homo sapiens, ADP 20 μg/mL, final concentration 2×10^–3 mol/L, median (25-75 percentiles), read-out: Platelets aggregation, % of control, ADP
Description: (§6) The in vitro experiments were performed using the blood of healthy male donors aged 18-24 years (total 54 donors). The study was approved by the Ethics Committee of Federal State Budgetary Educational Institution of Higher Education at the Bashkir State Medical University of the Ministry of Health of Russian Federation (No.2 dated 17.10.2012). Informed consent was obtained from all participants before blood sampling. The blood was collected from the cubital vein using the system of vacuum blood collection BD Vacutainer® (Becton, Dickinson and Company, USA). A 3.8 % sodium citrate solution in a 9:1 ratio was used as a venous blood stabiliser. The study of the effect on platelet aggregation was performed using the Born method using the aggregometer «AT-02» (SPC Medtech, Russia). The assessment of antiplatelet activity of the studied compounds and reference preparations was started with the final concentration of 2×10^–3 mol/L. Adenosine diphosphate (ADP; 20 μg/mL) and collagen (5 mg/mL) manufactured by Tehnologia-Standart Company, Russia, were used as inducers of aggregation. The study on the anticoagulant activity was performed by standard recognised clotting tests using the optical two-channel automatic analyser of blood coagulation Solar CGL 2110 (CJSC SOLAR, Belarus). The following parameters were studied: activated partial thromboplastin time (APTT), prothrombin time (PT) and fibrinogen concentrations according to the Clauss method. The determination of anticoagulant activity of the studied compounds and reference preparation was performed in a concentration of 5×10^–4 g/mL using the reagents manufactured by Tehnologia-Standart Company (Barnaul, Russia). The results of the study were processed using the statistical package Statistica 10.0 (StatSoft Inc, USA). The Shapiro–Wilk’s test was used to check the normality of actual data distribution. The form of distribution of the data obtained differed from the normal one; therefore, non-parametric methods were used for further analysis. The data were presented as medians and 25 and 75 percentiles. Analysis of variance was conducted using Kruskal–Wallis test. A p value of 0.05 was considered statistically significant.

[6] = tested on: Candida albicans ATCC 10231; experiment: Antimicrobial activity, serial dilution (MIC/MBC), Ca; conditions: ATCC10231
Description: as §4, §5

[7] = tested on: platelets (collagen-induced aggregation); experiment: Platelet aggregation (Born method), collagen-induced; conditions: Homo sapiens, collagen 5 mg/mL, final concentration 2×10^–3 mol/L, median (25-75 percentiles), read-out: Platelets aggregation, % of control, Collagen
Description: as §6

[8] = 150 μl per well, 36-40 h, read-out: width of the inhibition zone
[9] = read-out: Inhibition zone width (mm), not less

Row | MIC ([4]; Bacillus cereus, read-out: MIC) | MIC [6] | MIC [4] | Structure (SMILES) | zone of inhibition at 2000 µM [1, 8] | zone of inhibition at 2000 µM [1, 9] | zone of inhibition at 2000 µM [2, 8] | zone of inhibition at 2000 µM [2, 9] | zone of inhibition at 2000 µM [3, 8] | zone of inhibition at 2000 µM [3, 9] | MBC ([4]; Bacillus cereus) | inhibition at 2000 µM [5] | MBC [6] | inhibition at 2000 µM [7]
1 | 52 ± 4.7 µM | > 500 µM | – | CC[N+](CC)(CC)CC(=O)N/N=C1\C(=O)N(Cc2cc(C(C)(C)C)c(O)c(C(C)(C)C)c2)c2ccccc21 [Compound 3a, 2-(2-(1-(3,5-Di-tert-butyl-4-hydroxybenzyl)-2-oxoindolin-3-ylidene)hydrazinyl)-N,N,N-triethyl-2-oxoethanammonium bromide] | 9 mm | ≥ 9 mm | 10 mm | ≥ 10 mm | 10 mm | ≥ 10 mm | > 500 µM | 10.5% | > 500 µM | 9.4%
2 | 71 ± 6.2 µM | > 500 µM | – | CC[N+](CC)(CC)CC(=O)N/N=C1\C(=O)N(Cc2cc(C(C)(C)C)c(O)c(C(C)(C)C)c2)c2cccc(Br)c21 [Compound 3e, 2-(2-(1-(3,5-Di-tert-butyl-4-hydroxybenzyl)-4-bromo-2-oxoindolin-3-ylidene)hydrazinyl)-N,N,N-triethyl-2-oxoethanammonium bromide] | 9 mm | ≥ 9 mm | 11 mm | ≥ 11 mm | 10 mm | ≥ 10 mm | 284 µM | 0.5% | > 500 µM | 2.4%

Further lines, the compound ahead of its results:

Row | Structure (SMILES) | MIC ([4]; Bacillus cereus, read-out: MIC) | MIC [6] | MIC [4] | zone of inhibition at 2000 µM [1, 8] | zone of inhibition at 2000 µM [1, 9] | zone of inhibition at 2000 µM [2, 8] | zone of inhibition at 2000 µM [2, 9] | zone of inhibition at 2000 µM [3, 8] | zone of inhibition at 2000 µM [3, 9] | MBC ([4]; Bacillus cereus) | inhibition at 2000 µM [5] | MBC [6] | inhibition at 2000 µM [7]
3 | CCc1cccc2c1N(Cc1cc(C(C)(C)C)c(O)c(C(C)(C)C)c1)C(=O)/C2=N\NC(=O)C[N+](CC)(CC)CC [Compound 3c, 2-(2-(1-(3,5-Di-tert-butyl-4-hydroxybenzyl)-7-ethyl-2-oxoindolin-3-ylidene)hydrazinyl)-N,N,N-triethyl-2-oxoethanammonium bromide] | ~25 µM | > 500 µM | 24.8 ± 1.9 µM | 8 mm | ≥ 8 mm | 11 mm | ≥ 11 mm | 9 mm | ≥ 9 mm | 99.3 µM | 13.7% | > 500 µM | 12.5%
4 | CC[N+](CC)(CC)CC(=O)N/N=C1\C(=O)N(Cc2cc(C(C)(C)C)c(O)c(C(C)(C)C)c2)c2c1ccc(C)c2C [Compound 3d, 2-(2-(1-(3,5-Di-tert-butyl-4-hydroxybenzyl)-6,7-dimethyl-2-oxoindolin-3-ylidene)hydrazinyl)-N,N,N-triethyl-2-oxoethanammonium bromide] | 49.6 ± 3.9 µM | 198 ± 15.5 µM | – | 9 mm | ≥ 9 mm | 8 mm | ≥ 8 mm | 8 mm | ≥ 8 mm | 198 µM | 9% | > 500 µM | 8.5%
5 | CC[N+](CC)(CC)CC(=O)N/N=C1\C(=O)N(Cc2cc(C(C)(C)C)c(O)c(C(C)(C)C)c2)c2ccc([N+](=O)[O-])cc21 [Compound 3f, 2-(2-(1-(3,5-Di-tert-butyl-4-hydroxybenzyl)-5-nitro-2-oxoindolin-3-ylidene)hydrazinyl)-N,N,N-triethyl-2-oxoethanammonium bromide] | 397 ± 31.7 µM | > 500 µM | – | 10 mm | ≥ 10 mm | 7.5 mm | – | 5 mm | – | > 500 µM | 4.6% | > 500 µM | 4.3%
6 | CC[N+](CC)(CC)CC(=O)N/N=C1\C(=O)N(Cc2cc(C(C)(C)C)c(O)c(C(C)(C)C)c2)c2c(Br)cc(Cl)cc21 [Compound 3g, 2-(2-(1-(3,5-Di-tert-butyl-4-hydroxybenzyl)-5-chloro-7-bromo-2-oxoindolin-3-ylidene)hydrazinyl)-N,N,N-triethyl-2-oxoethanammonium bromide] | 43.7 ± 3.5 µM | > 500 µM | – | 8.5 mm | ≥ 8 mm | 8 mm | ≥ 8 mm | 9 mm | ≥ 9 mm | 87.4 µM | 10.2% | > 500 µM | 8.9%

Reference: publication PMC8957246, “Synthesis and diverse biological activity profile of triethylammonium isatin-3-hydrazones” (ADMET & DMPK, 2022)
